From US11802128B2, “Azetidine and pyrrolidine PARP1 inhibitors and uses thereof” (Xinthera, Inc., priority 2021, dated 2023) come the findings set out here.

Assay [1] has as its target PARP2 (Homo sapiens (Human), UniProt Q9UGN5). Put plainly: Biochemical fluorescent polarization (FP) assay, displacement of PARPi-FL. It counts as binding. Particulars: 20 nM protein, 3 nM PARPi-FL, 4 h at room temperature; read-out: IC50 FP PARP2. A digest of the protocol: (§1)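 Purified PARP1 or PARP2 at 20 nM final with 3 nM PARPi-FL in 50 mM Tris pH 8.0, 0.001% Triton X-100, 10 mM MgCl2, 150 mM NaCl. Incubated 4 h at room temperature, then fluorescence polarization read; controls with and without protein.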

In assay [2] the target is PARP1 (Homo sapiens (Human), UniProt P09874). The assay is described as above. The settings on record: 20 nM protein, 3 nM PARPi-FL, 4 h at room temperature. It counts as binding. A digest of the protocol: as §1
Assay [3] relates to DLD-1 parental cells. As to the kind of experiment: Cell growth inhibition assay (CellTiter-Glo cell viability, 7 days). It is filed as cell-based. Particulars: Homo sapiens, 168 h. A digest of the protocol: (§2)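 Cells were seeded at 50 (DLD-1 parental), 200 (DLD-1 BRCA2−/−) or 500 (MDA-MB-436) cells/well onto 1:3 compound dilutions, top final 10 or 30 μM. Culture ran 7 days at 37 °C, 5% CO2. ATP was read by CellTiter-Glo 2.0, and IC50 was fitted from growth inhibition.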
A general note: ATP-based viability assays read luminescence as a measure of living cells.

The test system of assay [4] is MDA-MB-436 (mutated BRCA1) cells. The description is as above. Particulars: Homo sapiens, 168 h, MDA-MB-436, 7 days. It counts as cell-based. A digest of the protocol:
as §2

The test system of assay [5] is DLD-1 BRCA2(−/−) cells. The description is as above. The settings on record: Homo sapiens, 168 h. It counts as cell-based. A digest of the protocol:
as §2

By IC50 is commonly meant the concentration at which inhibition is half-maximal. In general, EC50 refers to the concentration at which the effect is half-maximal.

Sequence of PARP2 (Q9UGN5 whole entry): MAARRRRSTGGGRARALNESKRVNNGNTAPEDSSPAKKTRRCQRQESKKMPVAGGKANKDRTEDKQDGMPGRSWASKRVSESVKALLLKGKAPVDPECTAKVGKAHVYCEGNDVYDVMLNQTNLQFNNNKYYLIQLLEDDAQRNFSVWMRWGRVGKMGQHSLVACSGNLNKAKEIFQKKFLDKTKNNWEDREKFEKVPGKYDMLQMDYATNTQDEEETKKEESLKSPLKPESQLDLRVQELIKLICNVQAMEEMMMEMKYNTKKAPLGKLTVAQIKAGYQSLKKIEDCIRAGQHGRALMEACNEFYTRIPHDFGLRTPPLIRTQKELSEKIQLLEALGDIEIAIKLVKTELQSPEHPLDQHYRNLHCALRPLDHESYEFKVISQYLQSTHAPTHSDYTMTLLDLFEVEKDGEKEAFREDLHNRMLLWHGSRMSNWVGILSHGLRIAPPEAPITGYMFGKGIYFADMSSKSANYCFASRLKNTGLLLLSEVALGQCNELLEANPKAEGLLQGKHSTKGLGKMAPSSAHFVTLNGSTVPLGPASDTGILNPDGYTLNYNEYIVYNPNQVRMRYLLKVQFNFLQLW
Sequence of PARP1 (P09874 whole entry): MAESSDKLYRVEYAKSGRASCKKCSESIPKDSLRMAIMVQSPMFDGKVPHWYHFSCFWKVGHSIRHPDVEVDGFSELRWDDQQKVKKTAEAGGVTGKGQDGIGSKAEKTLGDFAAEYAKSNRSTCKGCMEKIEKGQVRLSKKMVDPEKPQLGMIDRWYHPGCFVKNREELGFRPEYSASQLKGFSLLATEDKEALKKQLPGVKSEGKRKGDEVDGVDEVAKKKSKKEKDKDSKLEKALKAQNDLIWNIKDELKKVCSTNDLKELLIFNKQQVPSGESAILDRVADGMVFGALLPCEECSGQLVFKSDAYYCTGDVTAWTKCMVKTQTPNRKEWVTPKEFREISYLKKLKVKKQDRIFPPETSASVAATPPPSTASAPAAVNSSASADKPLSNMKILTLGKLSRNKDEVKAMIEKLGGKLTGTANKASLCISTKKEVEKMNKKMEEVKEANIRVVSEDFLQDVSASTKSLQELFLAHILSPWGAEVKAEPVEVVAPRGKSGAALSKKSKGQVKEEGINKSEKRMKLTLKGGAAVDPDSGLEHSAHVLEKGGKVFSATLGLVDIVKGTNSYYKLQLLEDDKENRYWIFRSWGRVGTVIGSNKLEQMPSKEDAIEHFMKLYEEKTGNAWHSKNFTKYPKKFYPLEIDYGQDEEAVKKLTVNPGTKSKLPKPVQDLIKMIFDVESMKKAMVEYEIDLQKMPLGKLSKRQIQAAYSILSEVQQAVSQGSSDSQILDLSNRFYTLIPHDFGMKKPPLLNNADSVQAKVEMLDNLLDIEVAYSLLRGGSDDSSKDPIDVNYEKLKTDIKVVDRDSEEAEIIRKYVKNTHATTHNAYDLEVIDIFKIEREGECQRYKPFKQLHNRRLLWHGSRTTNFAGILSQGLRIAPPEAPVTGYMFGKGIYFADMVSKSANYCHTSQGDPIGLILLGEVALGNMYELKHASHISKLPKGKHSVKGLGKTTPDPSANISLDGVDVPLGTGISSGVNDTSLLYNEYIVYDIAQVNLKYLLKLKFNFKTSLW

In the case of `CCc1cc2ncc(CN3CC[C@@H](Oc4ccc(C(=O)NC)nc4)C3)cc2[nH]c1=O` [Example 2, 5-{[(3R)-1-[(7-ethyl-6-oxo-5H-1,5-naphthyridin-3-yl)methyl]pyrrolidin-3-yl]oxy}-N-methylpyridine-2-carboxamide], the concentration for half-maximal inhibition (IC50) in assay [1] is more than 10000 nM; in assay [2], 4.2 nM. Also, the 50% effective concentration (EC50) was more than 30000 nM in assay [3], 1.6 nM in assay [4] and 3.3 nM in assay [5].

As for `CCc1nc2cc(F)c(CN3C[C@H](Oc4ccc(C(=O)NC)nc4)[C@H]3C)cc2[nH]c1=O` [Example 59], the IC50 is more than 100000 nM in assay [1] and 5.5 nM in assay [2]. The concentration giving a half-maximal response (EC50) worked out at 4.7 nM in assay [4] and 9.8 nM in assay [5].

Turning to `Cc1cc2ncc(CN3C[C@H](Oc4ccc(F)nc4)[C@H]3C)cc2[nH]c1=O` [Example 62], the results for the IC50 in assay [1] and in assay [2] were 52000 nM and 18 nM, respectively. In addition, the half-maximal effective concentration (EC50) was determined as 140 nM in assay [4] and 86 nM in assay [5].

As for `CCc1cc2ncc(CN3C[C@H](n4ccc5nc(C(=O)NC)ccc54)[C@H]3C)cc2[nH]c1=O` [Example 63, 1-[(2R,3S)-1-[(7-ethyl-6-oxo-5H-1,5-naphthyridin-3-yl)methyl]-2-methylazetidin-3-yl]-N-methylpyrrolo[3,2-b]pyridine-5-carboxamide], the figures for the IC50 in assay [1] and in assay [2] were 9600 nM and 6.6 nM, respectively. The EC50 in assay [4] was 3.6 nM; in assay [5] it was 4.8 nM.

On to `CCc1cc2ncc(CN3C[C@H](Oc4ccc(C(=O)NC)cc4)[C@H]3C)cc2[nH]c1=O` [Example 64], for which the IC50 was 2600 nM in assay [1] and more than 100 nM in assay [2]. In addition, the EC50 in assay [4] was determined as 43 nM; in assay [5] it was 96 nM.

In the case of `CCc1cc2ncc(CN3C[C@H](Oc4cnc(C(=O)NC5CC5)c(F)c4)[C@H]3C)cc2[nH]c1=O` [Example 66, N-cyclopropyl-5-{[(2R,3S)-1-[(7-ethyl-6-oxo-5H-1,5-naphthyridin-3-yl)methyl]-2-methylazetidin-3-yl]oxy}-3-fluoropyridine-2-carboxamide], the 50% inhibitory concentration (IC50) in assay [1] was found to be 6400 nM; in assay [2], 3.3 nM. Also, the EC50 in assay [4] came to 1 nM; in assay [5], 2.1 nM.

`CNC(=O)c1ccc(O[C@H]2CN(Cc3cnc4cc(C(F)F)c(=O)[nH]c4c3)[C@@H]2C)cn1` [Example 70]: the 50% inhibitory concentration (IC50) is 2400 nM in assay [1] and 4.1 nM in assay [2]. Moreover, the EC50 was 1.1 nM in assay [4] and 1.3 nM in assay [5].

As for `O=C(NC1CC1)c1ccc(OC2CN(Cc3cnc4cc(C5CC5)c(=O)[nH]c4c3)C2)cn1` [Example 73], the half-inhibitory concentration (IC50) in assay [1] was determined as 1700 nM; in assay [2] it was 3.6 nM. Also, the concentration for a half-maximal effect (EC50) came out at 2.1 nM in assay [4] and 4.8 nM in assay [5].

Consider `Cc1cc2ncc(CN3C[C@H](Oc4ccc(C(=O)NC5(C)CC5)nc4)[C@H]3C)cc2[nH]c1=O` [Example 74], for which the half-maximal inhibitory concentration (IC50) in assay [1] came out at 25000 nM; in assay [2], 8.9 nM. For the same compound, the EC50 in assay [4] was found to be 2.6 nM; in assay [5], 3.9 nM.

For the compound `C[C@@H]1[C@@H](Oc2ccc(C(=O)NC3CC3)nc2)CN1Cc1cnc2cc(C(F)F)c(=O)[nH]c2c1` [Example 75, N-cyclopropyl-5-{[(2R,3S)-1-{[7-(difluoromethyl)-6-oxo-5H-1,5-naphthyridin-3-yl]methyl}-2-methylazetidin-3-yl]oxy}pyridine-2-carboxamide], the IC50 was determined as 5200 nM in assay [1] and 4 nM in assay [2]. The EC50 in assay [4] was determined as 0.72 nM; in assay [5], 1.2 nM.

Take `C[C@@H]1[C@@H](Oc2ccc(C(=O)NC3CC3)nc2)CN1Cc1cnc2cc(Cl)c(=O)[nH]c2c1` [Example 76, 5-{[(2R,3S)-1-[(7-chloro-6-oxo-5H-1,5-naphthyridin-3-yl)methyl]-2-methylazetidin-3-yl]oxy}-N-cyclopropylpyridine-2-carboxamide]: the results for the IC50 in assay [1] and in assay [2] were 8700 nM and 2.8 nM, respectively. Moreover, the EC50 in assay [4] worked out at 1.1 nM; in assay [5], 1.4 nM.

Turning to `CNC(=O)c1ccc(O[C@H]2CN(Cc3cnc4cc(Cl)c(=O)[nH]c4c3)[C@@H]2C)cn1` [Example 77], the IC50 is more than 100000 nM in assay [1] and 3.8 nM in assay [2]. Also, the 50% effective concentration (EC50) in assay [4] came out at 1.8 nM; in assay [5], 3.8 nM.

In the case of `Cc1cc2ncc(CN3C[C@H](Oc4ccc(C(=O)NC5CC(F)(F)C5)nc4)[C@H]3C)cc2[nH]c1=O` [Example 80], the IC50 was determined as 5300 nM in assay [1] and 3.8 nM in assay [2]. Further, the EC50 in assay [4] came out at 1.8 nM; in assay [5], 4.3 nM.

Take `Cc1cc2ncc(CN3C[C@H](Oc4ccc(C(=O)N[C@H]5C[C@H](F)C5)nc4)[C@H]3C)cc2[nH]c1=O` [Example 82]: the half-maximal inhibitory concentration (IC50) in assay [1] stood at 6800 nM; in assay [2], 4.5 nM. In addition, the concentration giving a half-maximal response (EC50) in assay [4] amounted to 2.1 nM; in assay [5], 3.1 nM.

Take `C[C@@H]1[C@@H](Oc2ccc(C(=O)NC3CC3)nc2)CN1Cc1cnc2c(c1)[nH]c(=O)c1ccoc12` [Example 84]: the IC50 in assay [1] is 48000 nM; in assay [2] it was 8.8 nM. Besides, the EC50 is 1.4 nM in assay [4] and 3 nM in assay [5].

Take `CNC(=O)c1ccc(O[C@H]2CN(Cc3ccc4nc(C)c(=O)[nH]c4c3F)[C@@H]2C)cn1` [Example 91]: the IC50 in assay [1] is more than 100000 nM; in assay [2], 11 nM. Moreover, the results for the 50% effective concentration (EC50) in assay [4] and in assay [5] were 27 nM and 23 nM, respectively.
